In brackets after ≈: the same amount, converted by molar mass. Read-outs that look alike come from different tables or passages of the source.
Key:
[1] = Pharmacokinetics of different forms in beagle dogs; assay type: in vivo; settings: capsule, 3 mg/kg
Experimental: Animal subject: beagle dogs, male, weighed 8˜14 kg, 3 dogs/crystal form. Beagle dogs were purchased from Beijing Marshall Biotechnology Co. Ltd.
Administration: three test samples were prepared into capsules, at an administration dose of 3 mg/kg according to body weight of dog.
About 37.3 mg of an amorphous compound was weighed, and packaged into hollow capsules (three capsules in total, one capsule per dog).
Blood was collected 10 min, 30 min, 1 h, 2 h, 4 h, 6 h, 8 h, and 24 h after administration. Before blood collection, the animals were fixed, and whole blood (about 400 μL) was collected from vein of forelimb at each time point, and added to K2EDTA-containing anticoagulation tubes. The whole blood sample was centrifuged for 6 min at 4° C., 8000 rpm in a high speed centrifuge, and plasma was separated. Plasma needed to be prepared within 30 min after blood collection, and plasma was stored at −80° C. in a refrigerator.
The plasma samples were analyzed by protein precipitation: to plasma (50 μL), an internal standard Afatinib dimaleate (200 μL, 50 ng/mL acetonitrile solution) was added; the resultant mixture was vortexed at 1500 rpm for 3 min, and centrifuged at 12000 rpm for 5 min; to the supernatant (100 μL), water (100 μL) was added; the resultant mixture was mixed homogeneously under vortexing and analyzed by LC-MS/MS for blood concentration.
PK parameters were calculated by using Pharsight Phoenix 6.2 software.

[2] = Soluble property test in water; assay type: physicochemical
Experimental: (1) Soluble property test: to a test sample, adding a corresponding solvent dropwise in a small amount for several times, shaking in a 25° C. thermostat water bath until the sample was completely dissolved, and calculating the dissolved concentration, i.e., soluble property.

[3] = Solubility test (saturated solubility) in water; assay type: physicochemical
Excerpt: (2) Solubility test: to a suitable volume of water, adding a test sample until oversaturation occurred in the solution of the sample, vortexing, centrifuging, filtrating the supernatant and then diluting it to a suitable concentration, subjecting the sample to a liquid chromatographic instrument, and determining the saturated concentration of the sample (i.e., saturated solubility) by external standard method.

[4] = Stability of Crystal form I under influencing factor condition (high temperature of 60° C.); assay type: physicochemical
Experimental: A test sample was kept under influencing factor condition (a high temperature of 60° C.) for 30 d. Samples were separately taken at specified time points, and compared with the sample at Day 0. XRPD, relevant substances, contents, character, acidity, moisture content, and the like were determined. During the study, samples were packaged with plastic bags and sealed with aluminum foil outside.
(§1) In accordance with High Performance Liquid Chromatography in Appendix V D in Pharmacopoeia of the People's Republic of China (2010), samples at Day 0 were used as control samples, and samples were determined by external standard method.
(§2) In accordance with High Performance Liquid Chromatography in Appendix V D in Pharmacopoeia of the People's Republic of China (2010), samples were determined by area normalization method.
(§3) The moisture content was determined in accordance with First Method for Determining Moisture Content B (Coulometric Titration) in Appendix VIII M in Pharmacopoeia of the People's Republic of China (2010).

[5] = Stability of Crystal form I under accelerated condition and long-term condition; assay type: physicochemical
Experimental: Test samples were kept under accelerated condition (40° C.+RH 75%) for 6 months. Samples were separately taken at specified time points. XRPD, character, relevant substances, content, acidity, moisture content and the like were studied.
Test samples were kept under long-term condition (25° C.) for 6 months. Samples were separately taken at specified time points. Important items of stability (relevant substances) were studied.
At the last time point of the accelerated condition and long-term condition, XRPD, character, relevant substances, content, pH, moisture content and the like were studied.
as §1, §2, §3

[6] = as above; assay type: physicochemical; settings: 30° C. 1 month
[7] = Stability of Crystal form II under influencing factor condition; assay type: physicochemical
Experimental: Test samples in culture dishes were left uncovered. The test samples, which were kept under influencing factor conditions (a high temperature of 60° C., 25° C.-high moisture RH 75%, and 25° C.-high moisture RH 92.5%, under the condition of light) for 5 days and 10 days, were studied for stability; and the test samples which were kept at 40° C. for 5 days, 10 days and 30 days, and the test samples which were kept at 25° C. for 30 days and 90 days, were studied for stability. Samples were separately taken at specified time points, and the items (moisture content (Coulomb), relevant substances, XRPD) were studied. In accordance with High Performance Liquid Chromatography in Appendix V D in Pharmacopoeia of the People's Republic of China (2010), samples were determined by area normalization method. The moisture content was determined in accordance with First Method for Determining Moisture Content B (Coulometric Titration) in Appendix VIII M in Pharmacopoeia of the People's Republic of China (2010).

[8] = biological target: EGFR (Homo sapiens, UniProt P00533); settings: disclosed in WO2012027960A1; cited from earlier work
[9] = biological target: HER2 (Homo sapiens, UniProt P04626); settings: disclosed in WO2012027960A1; cited from earlier work
[10] = biological target: HER4 (Homo sapiens, UniProt Q15303); settings: disclosed in WO2012027960A1; cited from earlier work
[11] = system: erlotinib-resistant H1975 cell line; settings: cited from earlier work
[12] = RH75% 5 days, 25° C., uncovered
[13] = RH75% 10 days, 25° C., uncovered
[14] = RH92.5% 5 days, 25° C., uncovered
[15] = RH92.5% 10 days, 25° C., uncovered

HER4, sequence (Q15303 26-1308): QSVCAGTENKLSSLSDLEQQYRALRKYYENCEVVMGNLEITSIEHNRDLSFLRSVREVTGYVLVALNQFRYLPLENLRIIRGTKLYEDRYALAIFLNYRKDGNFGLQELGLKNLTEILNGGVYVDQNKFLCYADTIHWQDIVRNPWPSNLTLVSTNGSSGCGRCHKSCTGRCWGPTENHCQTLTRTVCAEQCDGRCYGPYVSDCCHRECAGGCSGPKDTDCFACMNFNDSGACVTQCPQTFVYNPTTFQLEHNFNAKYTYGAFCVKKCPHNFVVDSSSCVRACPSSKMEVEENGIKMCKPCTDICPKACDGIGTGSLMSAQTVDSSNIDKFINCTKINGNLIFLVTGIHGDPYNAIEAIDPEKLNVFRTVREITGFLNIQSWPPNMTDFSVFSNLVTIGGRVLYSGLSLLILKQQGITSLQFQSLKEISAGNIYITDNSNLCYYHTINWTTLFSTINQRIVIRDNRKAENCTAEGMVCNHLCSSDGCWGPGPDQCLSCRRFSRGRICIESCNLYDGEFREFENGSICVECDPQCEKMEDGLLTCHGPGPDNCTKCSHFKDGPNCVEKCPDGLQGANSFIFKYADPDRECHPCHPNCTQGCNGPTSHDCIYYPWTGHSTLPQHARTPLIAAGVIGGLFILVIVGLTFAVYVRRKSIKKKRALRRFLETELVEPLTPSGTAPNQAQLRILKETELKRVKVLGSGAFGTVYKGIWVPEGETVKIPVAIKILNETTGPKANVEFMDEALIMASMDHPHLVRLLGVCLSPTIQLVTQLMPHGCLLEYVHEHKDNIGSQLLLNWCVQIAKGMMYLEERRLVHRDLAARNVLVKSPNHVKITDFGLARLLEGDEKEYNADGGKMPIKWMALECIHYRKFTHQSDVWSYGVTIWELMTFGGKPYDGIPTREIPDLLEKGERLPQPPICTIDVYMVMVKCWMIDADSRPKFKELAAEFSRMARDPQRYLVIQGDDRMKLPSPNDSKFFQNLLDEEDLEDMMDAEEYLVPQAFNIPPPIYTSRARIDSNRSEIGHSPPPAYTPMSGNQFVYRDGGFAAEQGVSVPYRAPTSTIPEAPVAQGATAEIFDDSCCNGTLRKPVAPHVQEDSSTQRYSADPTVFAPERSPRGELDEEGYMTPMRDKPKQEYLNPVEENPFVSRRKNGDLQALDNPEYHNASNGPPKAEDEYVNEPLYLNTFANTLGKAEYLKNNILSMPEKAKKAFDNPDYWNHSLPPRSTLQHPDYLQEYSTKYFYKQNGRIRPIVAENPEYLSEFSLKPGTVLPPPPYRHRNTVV
EGFR, sequence (P00533 25-1210): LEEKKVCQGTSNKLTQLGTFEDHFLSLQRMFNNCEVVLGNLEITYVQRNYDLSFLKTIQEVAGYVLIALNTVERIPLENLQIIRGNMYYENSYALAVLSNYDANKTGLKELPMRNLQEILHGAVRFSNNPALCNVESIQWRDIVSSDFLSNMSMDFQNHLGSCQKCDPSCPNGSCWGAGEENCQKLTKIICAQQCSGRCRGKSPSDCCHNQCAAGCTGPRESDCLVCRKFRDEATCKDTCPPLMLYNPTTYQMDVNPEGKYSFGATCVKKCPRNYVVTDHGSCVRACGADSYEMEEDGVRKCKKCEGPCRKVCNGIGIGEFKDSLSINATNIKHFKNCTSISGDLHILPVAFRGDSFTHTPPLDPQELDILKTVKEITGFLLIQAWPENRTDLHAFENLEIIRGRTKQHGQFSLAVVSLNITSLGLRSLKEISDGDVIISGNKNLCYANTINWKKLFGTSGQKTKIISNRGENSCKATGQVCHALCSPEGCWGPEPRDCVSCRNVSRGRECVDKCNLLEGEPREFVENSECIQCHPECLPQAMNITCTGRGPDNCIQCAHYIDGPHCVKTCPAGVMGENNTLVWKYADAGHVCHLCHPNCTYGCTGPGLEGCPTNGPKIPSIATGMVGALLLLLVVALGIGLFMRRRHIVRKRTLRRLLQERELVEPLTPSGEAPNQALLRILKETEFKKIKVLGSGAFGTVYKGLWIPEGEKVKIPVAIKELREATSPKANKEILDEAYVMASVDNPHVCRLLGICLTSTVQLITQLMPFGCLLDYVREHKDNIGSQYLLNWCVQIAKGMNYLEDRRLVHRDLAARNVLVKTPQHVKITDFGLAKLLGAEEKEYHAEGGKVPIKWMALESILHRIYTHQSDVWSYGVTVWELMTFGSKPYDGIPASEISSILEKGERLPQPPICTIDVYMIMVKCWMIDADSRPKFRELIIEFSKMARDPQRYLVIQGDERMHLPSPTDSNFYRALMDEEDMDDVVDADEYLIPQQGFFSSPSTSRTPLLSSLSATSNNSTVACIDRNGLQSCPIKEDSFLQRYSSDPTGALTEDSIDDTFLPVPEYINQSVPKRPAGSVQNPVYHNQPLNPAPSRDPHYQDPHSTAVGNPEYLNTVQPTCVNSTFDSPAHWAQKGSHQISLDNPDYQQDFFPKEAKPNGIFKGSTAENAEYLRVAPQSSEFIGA
HER2, sequence (P04626 23-1255): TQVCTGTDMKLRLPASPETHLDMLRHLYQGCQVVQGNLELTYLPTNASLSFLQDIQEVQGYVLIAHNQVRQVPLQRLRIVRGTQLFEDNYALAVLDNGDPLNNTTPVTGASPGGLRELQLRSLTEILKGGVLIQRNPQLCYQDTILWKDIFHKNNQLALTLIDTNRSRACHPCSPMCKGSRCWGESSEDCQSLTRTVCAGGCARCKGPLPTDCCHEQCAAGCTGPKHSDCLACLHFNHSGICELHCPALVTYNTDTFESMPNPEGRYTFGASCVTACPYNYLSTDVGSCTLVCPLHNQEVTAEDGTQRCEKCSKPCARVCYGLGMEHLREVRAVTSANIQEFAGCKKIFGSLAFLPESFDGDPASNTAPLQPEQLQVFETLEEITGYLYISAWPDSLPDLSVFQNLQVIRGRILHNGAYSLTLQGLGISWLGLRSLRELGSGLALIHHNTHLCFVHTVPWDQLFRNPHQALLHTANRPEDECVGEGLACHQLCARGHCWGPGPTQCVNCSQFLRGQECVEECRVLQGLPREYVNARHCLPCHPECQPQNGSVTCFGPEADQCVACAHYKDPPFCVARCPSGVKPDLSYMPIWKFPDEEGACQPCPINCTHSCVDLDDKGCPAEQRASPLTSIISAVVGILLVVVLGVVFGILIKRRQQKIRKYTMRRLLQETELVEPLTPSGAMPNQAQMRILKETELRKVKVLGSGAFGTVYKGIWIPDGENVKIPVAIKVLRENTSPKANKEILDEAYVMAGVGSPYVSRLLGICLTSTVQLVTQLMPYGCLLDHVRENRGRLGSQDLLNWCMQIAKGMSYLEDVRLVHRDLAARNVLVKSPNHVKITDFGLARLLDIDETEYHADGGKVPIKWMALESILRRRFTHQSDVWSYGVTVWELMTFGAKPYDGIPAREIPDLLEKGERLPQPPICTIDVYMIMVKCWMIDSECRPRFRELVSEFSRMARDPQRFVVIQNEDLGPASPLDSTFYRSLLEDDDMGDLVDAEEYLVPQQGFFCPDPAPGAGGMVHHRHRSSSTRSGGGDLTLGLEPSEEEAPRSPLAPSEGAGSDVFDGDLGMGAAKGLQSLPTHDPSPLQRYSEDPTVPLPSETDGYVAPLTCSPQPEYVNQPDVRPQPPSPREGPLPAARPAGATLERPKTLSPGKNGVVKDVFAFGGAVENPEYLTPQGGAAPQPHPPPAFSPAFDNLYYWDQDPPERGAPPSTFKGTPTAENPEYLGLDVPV

Q: Which AUC0-t [1] does the source give for C=CC(=O)Nc1cc2c(Nc3ccc(F)c(Cl)c3)ncnc2cc1OCC1CC2(CCN(C)CC2)C1 [Amorphous form, N-(4-((3-chloro-4-fluorophenyl)amino)-7-((7-methyl-7-azaspiro[3.5]nonan-2-yl)methoxy)quinazolin-6-yl)acrylamide] here?
A: 68.6 ng·h/mL

Q: And the AUCinf [1]?
A: 79.9 ng·h/mL

Q: What about the Cmax [1] of the same compound?
A: 16.6 ng/mL

Q: And the T1/2 [1]?
A: 2.47 h

Q: What about the Tmax [1] of the same compound?
A: 2.00 h

Q: Which “Soluble property (descriptive term)” value ([2]; 25° C.) does the source give for C=CC(=O)Nc1cc2c(Nc3ccc(F)c(Cl)c3)ncnc2cc1OCC1CC2(CCN(C)CC2)C1 [Crystal form I, N-(4-((3-chloro-4-fluorophenyl)amino)-7-((7-methyl-7-azaspiro[3.5]nonan-2-yl)methoxy)quinazolin-6-yl)acrylamide] here?
A: slightly soluble, (soluble

Q: What about the solubility ([2]; 25 °C, thermodynamic from solid) of the same compound?
A: 20 mg/mL (≈ 39.2 mM)

Q: What about the solubility ([3]; thermodynamic from solid) of the same compound?
A: 39.1 mg/mL (≈ 76.7 mM)

Q: And the T1/2 [1]?
A: 4.95 h

Q: And the AUC(0-inf) ([1]; male, beagle, dog, plasma, po)?
A: 115 ng·h/mL

Q: What about the AUC0-t ([1]; male, beagle, dog, plasma, po, read-out: AUC0-t) of the same compound?
A: 112 ng·h/mL

Q: What about the Cmax ([1]; male, beagle, dog, plasma, po, read-out: Cmax) of the same compound?
A: 15.3 ng/mL

Q: And the Tmax ([1]; male, dog, plasma, po, read-out: Tmax)?
A: 2 h

Q: And the Content ([4]; 0 day)?
A: 100.8%

Q: What about the Moisture content ([4]; 0 day) of the same compound?
A: 3.9%

Q: And the Relevant substances ([4]; 0 day)?
A: 0.15%

Q: What about the pH ([4]; 0 day) of the same compound?
A: 2.8

Q: What about the Content ([4]; 60° C.-covered-1 month) of the same compound?
A: 100.7%

Q: What about the Moisture content ([4]; 60° C.-covered-1 month) of the same compound?
A: 4.4%

Q: And the Relevant substances ([4]; 60° C.-covered-1 month)?
A: 0.20%

Q: What about the pH ([4]; 60° C.-covered-1 month) of the same compound?
A: 2.8

Q: And the Content ([4]; 60° C.-covered-5 days)?
A: 100.9%

Q: And the Moisture content ([4]; 60° C.-covered-5 days)?
A: 4.5%

Q: And the Relevant substances ([4]; 60° C.-covered-5 days)?
A: 0.23%

Q: And the pH ([4]; 60° C.-covered-5 days)?
A: 2.8

Q: And the Content ([4]; 60° C.-covered-10 days)?
A: 100.7%

Q: And the Moisture content ([4]; 60° C.-covered-10 days)?
A: 4.5%

Q: What about the Relevant substances ([4]; 60° C.-covered-10 days) of the same compound?
A: 0.24%

Q: What about the pH ([4]; 60° C.-covered-10 days) of the same compound?
A: 2.7

Q: And the Overall stability conclusion ([4]; kept under various conditions for 1 month (Tables 3 and 4))?
A: high stability

Q: What about the Content ([5]; 0 day) of the same compound?
A: 100.8%

Q: What about the “Moisture content” value ([5]; 0 day) of the same compound?
A: 3.9%

Q: What about the Relevant substances ([5]; 0 day) of the same compound?
A: 0.15%

Q: What about the pH ([5]; 0 day) of the same compound?
A: 2.8

Q: What about the Content ([5]; 25° C. 1 month) of the same compound?
A: 100.7%

Q: What about the “Moisture content” value ([5]; 25° C. 1 month) of the same compound?
A: 4.2%

Q: And the Relevant substances ([5]; 25° C. 1 month)?
A: 0.18%

Q: And the pH ([5]; 25° C. 1 month)?
A: 2.8

Q: And the Content ([5]; 40° C. 1 month)?
A: 100.9%

Q: And the “Moisture content” value ([5]; 40° C. 1 month)?
A: 4.6%

Q: What about the Relevant substances ([5]; 40° C. 1 month) of the same compound?
A: 0.19%

Q: And the pH ([5]; 40° C. 1 month)?
A: 2.8

Q: And the Content [6]?
A: 100.8%

Q: What about the “Moisture content” value [6] of the same compound?
A: 4.3%

Q: And the Relevant substances [6]?
A: 0.18%

Q: And the pH [6]?
A: 2.8

Q: For C=CC(=O)Nc1cc2c(Nc3ccc(F)c(Cl)c3)ncnc2cc1OCC1CC2(CCN(C)CC2)C1 [Crystal form II, N-(4-((3-chloro-4-fluorophenyl)amino)-7-((7-methyl-7-azaspiro[3.5]nonan-2-yl)methoxy)quinazolin-6-yl)acrylamide], which Soluble property ([2]; 25° C.) is on record?
A: property: 23.23) mg/mL

Q: And the “Soluble property (descriptive term)” value ([2]; 25° C.)?
A: slightly soluble, (soluble

Q: What about the “Solubility (saturated solubility)” value [3] of the same compound?
A: solubility: 28.94 mg/mL

Q: What about the AUC0-t [1] of the same compound?
A: 110 ng·h/mL

Q: What about the AUCinf [1] of the same compound?
A: 111 ng·h/mL

Q: And the Cmax [1]?
A: 14.6 ng/mL

Q: What about the T1/2 [1] of the same compound?
A: 3.98 h

Q: And the Tmax [1]?
A: 2.00 h

Q: What about the Moisture content ([7]; 0 day) of the same compound?
A: 13.1%

Q: And the Relevant substances ([7]; 0 day)?
A: 1.2%

Q: What about the Moisture content ([7]; 25° C. 3 months, uncovered) of the same compound?
A: 13.4%

Q: And the Relevant substances ([7]; 25° C. 3 months, uncovered)?
A: 1.3%

Q: And the Moisture content ([7]; 25° C. 30 days, uncovered)?
A: 13.1%

Q: And the Relevant substances ([7]; 25° C. 30 days, uncovered)?
A: 1.3%

Q: What about the “Crystal form XRPD” value ([7]; 40° C. 5 days, uncovered) of the same compound?
A: Crystal form I

Q: And the Moisture content ([7]; 40° C. 5 days, uncovered)?
A: 4.5%

Q: And the Relevant substances ([7]; 40° C. 5 days, uncovered)?
A: 1.3%

Q: And the “Crystal form XRPD” value ([7]; 40° C. 10 days, uncovered)?
A: Crystal form I

Q: What about the Moisture content ([7]; 40° C. 10 days, uncovered) of the same compound?
A: 5.6%

Q: What about the Relevant substances ([7]; 40° C. 10 days, uncovered) of the same compound?
A: 1.6%

Q: And the “Crystal form XRPD” value ([7]; 40° C. 30 days, uncovered)?
A: Crystal form I

Q: And the Moisture content ([7]; 40° C. 30 days, uncovered)?
A: 5.3%

Q: And the Relevant substances ([7]; 40° C. 30 days, uncovered)?
A: 3.0%

Q: What about the “Crystal form XRPD” value ([7]; 60° C. 5 days, uncovered) of the same compound?
A: Crystal form I

Q: What about the Moisture content ([7]; 60° C. 5 days, uncovered) of the same compound?
A: 4.4%

Q: What about the Relevant substances ([7]; 60° C. 5 days, uncovered) of the same compound?
A: 1.8%

Q: What about the “Crystal form XRPD” value ([7]; 60° C. 10 days, uncovered) of the same compound?
A: Crystal form I

Q: What about the Moisture content ([7]; 60° C. 10 days, uncovered) of the same compound?
A: 5.3%

Q: And the Relevant substances ([7]; 60° C. 10 days, uncovered)?
A: 2.3%

Q: What about the Moisture content ([7]; Light 5 days, uncovered) of the same compound?
A: 13.2%

Q: What about the Relevant substances ([7]; Light 5 days, uncovered) of the same compound?
A: 1.5%

Q: And the Moisture content ([7]; Light 10 days, uncovered)?
A: 13.3%

Q: What about the Relevant substances ([7]; Light 10 days, uncovered) of the same compound?
A: 1.8%

Q: What about the Moisture content [7, 12] of the same compound?
A: 13.2%

Q: And the Relevant substances [7, 12]?
A: 1.3%

Q: And the Moisture content [7, 13]?
A: 13.3%

Q: And the Relevant substances [7, 13]?
A: 1.3%

Q: What about the Moisture content [7, 14] of the same compound?
A: 13.4%

Q: And the Relevant substances [7, 14]?
A: 1.2%

Q: And the Moisture content [7, 15]?
A: 13.5%

Q: What about the Relevant substances [7, 15] of the same compound?
A: 1.3%

Q: What about the Overall stability conclusion ([7]; Table 5 conditions) of the same compound?
A: sensitive to high temperature conditions

Q: Which results are given for C=CC(=O)Nc1cc2c(Nc3ccc(F)c(Cl)c3)ncnc2cc1OCC1CC2(CCN(C)CC2)C1 [Formula (I), N-(4-((3-chloro-4-fluorophenyl)amino)-7-((7-methyl-7-azaspiro[3.5]nonan-2-yl)methoxy)quinazolin-6-yl)acrylamide]?
A: Inhibition of EGFR [8]: effectively inhibit EGFR; Inhibitory effect on HER2 [9]: inhibitory effect; Inhibitory effect on HER4 [10]: inhibitory effect; Inhibitory effect on H1975 cell line [11]: significantly inhibitory effect

Source: patent publication US10633364B2, “Crystals of quinazoline derivative and preparation method therefor” (Xuanzhu Pharma Co., Ltd., priority 2015, dated 2020)
